For series [1], the system named is O. ochengi. As to the kind of experiment: Anti-Onchocerca activity, all forms of the parasite (summary statements). The conditions noted are these: read-out: LC50 against O. ochengi (all three forms). As to the method:
(§1) Adult worms (six individuals per well for males and one per well for the female) and Mf were washed twice and were subsequently transferred to RPMI-1640 medium supplemented with L-glutamine, 100 U/mL penicillin and 100 µg/mL streptomycin and incubated at 37 °C in 24-well plates (96-well plate for Mf) with different concentrations of the drugs tested. Worm mortality was checked by observation under the binocular microscope after 48 h. After shaking, immotile and fully-elongated worms were considered to be dead. All tests were done in three independent triplicate determinations.

Series [2] concerns C. elegans CB211 (lev-1(e211) IV). The series is described as follows: microbe, parasite or virus in culture. The following applies: Caenorhabditis elegans, 48 h. As to the method: (§2) All strains were obtained from the Caenorhabditis Genetic Centre (CGC, Minneapolis, MN, USA). Strains were maintained at 20 °C on nematode growth medium (NGM). All worms were age-synchronized and obtained from eggs that were isolated by bleaching.
(§3) Young adult (L4 stage) worms were used to assess drug lethality. Monitored endpoint was 48 h mortality. Tests were performed in 24-well plates. Five hundred (500) microliters of test solution, which is M9-buffer (3 g KH2PO4, 6 g Na2HPO4, 5 g NaCl, 0.25 g MgSO4.7H2O, in 1 L of water after been autoclaved supplemented with 2% glucose, 0.5% cholesterol), were distributed in 24-well plates. The volume of M9-buffer equivalent to the drug to be added for each drug final concentration (in each test, three to six concentrations were used) was removed. Untreated worms in M9-buffer were used as negative control. […] Crude extract fraction (stock solution at 100 mg/mL) and pure compound (stock solution at 100 mg/mL) previously dissolved in M9-buffer were then added in well plates at increasing concentration (varying from 0 to 1000 or 1500 µg/mL for extract and fractions; 0 to 100 or 150 µg/mL). The young adult (10 to 15 ± 2) from the axenic culture (without food source) were then added at the test solution. […] Treatments were replicated three times.

Series [3] deals with C. elegans DA1316 (avr-14(ad1302) I avr-15(ad1051) glc-1(pk54)). The series is described as follows: microbe, parasite or virus in culture. The conditions noted are these: for LC50: Caenorhabditis elegans, 48 h. The procedure: as §2, §3
Series [4] has as its system C. elegans CB3474 (ben-1(e1880) III). As to the kind of experiment: microbe, parasite or virus in culture. The conditions noted are these: Caenorhabditis elegans, 48 h. The procedure: as §2, §3
The test system of series [5] is C. elegans N2 Bristol WT. As to the kind of experiment: microbe, parasite or virus in culture. The conditions noted are these: for Selectivity Index (SI) C. elegans Wild Type: SI = CC50 on Caco-2/LC50 on worm. As to the method:
as §2, §3

Series [6] concerns C. elegans VC722 (glc-2(ok1047) I). As to the kind of experiment: microbe, parasite or virus in culture. The following applies: for LC50: Caenorhabditis elegans, 48 h. As to the method: as §2, §3
For series [7], the system named is C. elegans ZZ16 (lev-9(x16) X). As to the kind of experiment: microbe, parasite or virus in culture. The following applies: Caenorhabditis elegans, 48 h. As to the method:
as §2, §3

In series [8] the test system is O. ochengi males. As to the kind of experiment: microbe, parasite or virus in culture. On the set-up: species or system Onchocerca ochengi. The conditions noted are these: for Selectivity Index (SI) O. ochengi Males: SI = CC50 on Caco-2/LC50 on worm.
Excerpt: The adult male worms were isolated as previously describe by Ndjonka et al. from fresh pieces of cattle skin (cow-udder) with palpable nodules obtained from the communal slaughter house of Ngaoundere in the Adamawa region of Cameroon. Nodules removed from the skin were brought to the laboratory, washed, drained and sterilized with 70% ethanol for dissection. After dissection of nodules, O. ochengi were extracted, isolated and washed three times in sterile phosphate-buffered saline (PBS). To analyze the anthelmintic activity of extract, fractions and pure compounds, the worms were incubated at 37 °C.
as §1

A short description of series [9]: In vitro cytotoxicity (MTT) and CC50 determination. It counts as cell-based. The following applies: human; for CC50 at 48 h: Caco-2, CC50 after 48 h calculated in µM, read-out: Cytotoxicity CC50, Caco-2 (in brackets) (converted); for CC50 at 72 h: Caco-2, MTT, read-out: Cytotoxicity, means CC50 ± SD, Caco-2. As to the method:
(§4) Cell culture: […] cells at Passage 70 were kindly provided by Prof. Hensel, Institute of Pharmaceutical Biology and Phytochemistry, University of Münster, and were cultured as previously describe by Zumdick et al..
(§5) Cytotoxicity test: The cytotoxicity assays were performed according to the method of Rahman et al.. Briefly, 1.5 × 10^4 viable cells/well were seeded in a 96-well plate and incubated for 24 to 48 h. […] DMEM samples were used as the negative control. […] The medium was removed, and formazan, generated by the activity of dehydrogenases, was solubilized with 70 µL of acidified isopropanol (0.4 M HCl). The amount of MTT-formazan that is directly proportional to the number of living cells was determined by measuring the optical density (OD) at 540 nm using a spectrophotometer. All controls used were treated equally. As control and to determine 100% growth, Caco-2 cells were grown in the absence of drugs so as to calculate cell viability. All determinations were performed in triplicate. […] The selectivity index (SI) values were calculated as the ratio: SI = CC50 of drug on Caco2/LC50 of drug on worm.

The test system of series [10] is O. ochengi females. As to the kind of experiment: microbe, parasite or virus in culture. The arrangement: species or system Onchocerca ochengi. The conditions noted are these: for Selectivity Index (SI) O. ochengi Females: SI = CC50 on Caco-2/LC50 on worm. As to the method:
The adult female worms were isolated by digestion of the nodules with collagenase at 37 °C. The female worms were cultured in a CO2-incubator [67]. For anthelmintic activity, they were incubated with the crude extracts, fractions and pure compounds.
as §1

Series [11] relates to Wistar rats. The series is described as follows: Acute oral toxicity on rats.
Excerpt: Adult Wistar rats (Rattus norvegicus), males aged 7 to 8 weeks and weighing 150 to 200 g, used for the experiments were obtained from LANAVET (Laboratoire National Vétérinaire, Garoua, Cameroon). The rats were acclimatized for one week in the Veterinary Research Laboratory of the Institute of Agricultural Research for Development, Wakwa, Cameroon, before initiating experiments. Animals were housed in groups of three (one group for the negative control, six groups for each drug at the first phase, six others at the second phase) under ambient temperatures (23 °C ± 1 °C) with relative humidity 55 ± 5% and 12 h light/dark cycle in polycarbonate cages. […] They were monitored by a veterinarian for health status.
Acute oral toxicity (LD50, that is the dose that kills 50% of animals of the tested group) was measured using the method of the OECD guidelines for the testing of chemicals [56] following the European Community guidelines for the protection of animals used in experiments [69] and respecting the 3Rs (Replacement, Refinement, Reduction) [70]. Drugs in distilled water were orally administered separately at doses of 10 mg/kg, 100 mg/kg and 1000 mg/kg body weight. The negative controls were distilled water-administered rats. They were given to three groups of three rats each and observed for 24 h. […] The test was done at a single oral dose for each rat in a 5 mL/kg volume. The experimental animals were starved for 24 h before and 4 h after treatment. […] The appearance of toxic symptoms, such as behavioral changes, locomotion, convulsions and mortality, was observed and recorded. Animals were observed constantly for the first 30 min after administration and, thereafter, every 4 h up to 24 h and, subsequently, once a day for up to 14 days.
The test system of series [12] is O. ochengi microfilariae. As to the kind of experiment: microbe, parasite or virus in culture. The arrangement: species or system Onchocerca ochengi. The conditions noted are these: for Selectivity Index (SI) O. ochengi Microfilariae: SI = CC50 on Caco-2/LC50 on worm. The procedure:
Microfilariae were isolated as describe by Cho-Ngwa et al. and Ndjonka et al.. About 10 skin snips were obtained from different locations of the skin. The skin snips were then incubated at 37 °C in PBS to let Mf emerge. The highly motile Mf were concentrated by centrifugation at 400× g for 10 min and quantified. The Mf were incubated at 37 °C with the crude extract, fractions and pure compounds.
as §1

In series [13] the test system is Caco-2 cells. The arrangement: method as in PMID 22776719. The conditions noted are these: at 127 µg/mL; cited from earlier work.
Series [14] relates to Caco-2 cells. As to the kind of experiment: In vitro cytotoxicity (MTT) and CC50 determination. Format: cell-based. The procedure:
as §4, §5

Series [15] has as its system O. ochengi. The following applies: read-out: LC50 on O. ochengi; stated in the introduction, no reference given; cited from earlier work.
Setting [16] is: read-out: LC50/48 h (in brackets).
Setting [17] is: Caenorhabditis elegans, 48 h, read-out: LC50/48 h.
[18] abbreviates: Onchocerca ochengi, 48 h, read-out: LC50/48 h.
The mark [19] stands for this setting: Onchocerca ochengi, 48 h, read-out: LC50/48 h (in brackets).

≈ marks a conversion by molar mass, not a printed value. Read-outs that look alike come from different tables or passages of the source.

As for `O=C(OC1Cc2c(O)cc(O)cc2OC1c1ccc(O)c(O)c1)c1cc(O)c(O)c(O)c1` (single isomer, unassigned; (-)) [ECG, (−)-epicatechin-3-O-gallate], the LC50 in series [1] was less than 2.5 µg/mL; in series [2] (read-out: LC50/48 h) it was 41.7 ± 1.2 µg/mL; in series [2] (setting [16]) it was 89.3 µM; in [3] (read-out: LC50/48 h), 27.4 ± 1.1 µg/mL; in series [3] (setting [16]), 61.9 µM; in [4] (read-out: LC50/48 h), 19.6 ± 0.8 µg/mL. In addition, the LC50 is 44.2 µM in series [4] (setting [16]); 33.8 ± 2.7 µg/mL in series [5] (setting [17]); 27.2 ± 1.4 µg/mL in series [6] (read-out: LC50/48 h); 61.4 µM in [6] (setting [16]); 39.5 ± 0.9 µg/mL in [7] (read-out: LC50/48 h); 76.4 µM in [7] (setting [16]). Moreover, the LC50 in [8] (setting [18]) is 2.1 ± 0.3 µg/mL; in series [8] (setting [19]), 4.7 µM; in series [10] (setting [18]), 2.1 ± 0.6 µg/mL; in series [10] (setting [19]) it was 4.7 µM; in [12] (setting [18]), 1 ± 0.4 µg/mL; in [12] (setting [19]), 2.2 µM. Moreover, the “Selectivity Index (SI) C. elegans Wild Type” value in series [5] is on record as 2.0. The “Selectivity Index (SI) O. ochengi Males” value in series [8] is recorded as 32.2. Also, the CC50 at 48 h in series [9] was 153 µM. Moreover, in [9], the CC50 at 72 h came to 67.6 ± 0.5 µg/mL (≈ 153 µM). The “Selectivity Index (SI) O. ochengi Females” value in series [10] was found to be 32.2. Also, the “Mortality of rats: rat number end/start” value in [11] (Phase 1, 10 mg/kg single oral dose) is reported as 0/3; in series [11] (Phase 1, 100 mg/kg single oral dose), 0/3; in [11] (Phase 1, 1000 mg/kg single oral dose) it was 0/3; in series [11] (Phase 2, 1500 mg/kg single oral dose) it was 0/3; in series [11] (Phase 2, 3000 mg/kg single oral dose), 0/3; in series [11] (Phase 2, 5000 mg/kg single oral dose), 0/3. Also, the “Selectivity Index (SI) O. ochengi Microfilariae” value in series [12] amounted to 67.6.
For the compound `O=C(OC1Cc2c(O)cc(O)cc2OC1c1cc(O)c(O)c(O)c1)c1cc(O)c(O)c(O)c1` (single isomer, unassigned; (-)) [EGCG, (−)-epigallocatechin-3-O-gallate], the LC50 in series [1] was less than 2.5 µg/mL; in series [2] (read-out: LC50/48 h), 26.3 ± 1.3 µg/mL; in series [2] (setting [16]), 57.4 µM; in [3] (read-out: LC50/48 h), 40.8 ± 0.3 µg/mL; in [3] (setting [16]), 89.1 µM; in [4] (read-out: LC50/48 h) it was 35.7 ± 1 µg/mL. In addition, the LC50 in [4] (setting [16]) was 77.9 µM; in series [5] (setting [17]), 49.8 ± 0.8 µg/mL; in series [5] (Caenorhabditis elegans, 48 h, read-out: LC50/48 h (in brackets)), 109 µM; in series [6] (read-out: LC50/48 h), 43.7 ± 2.1 µg/mL; in [6] (setting [16]), 95.4 µM; in series [7] (read-out: LC50/48 h), more than 100 µg/mL. The LC50 was 1.2 ± 0.5 µg/mL in series [8] (setting [18]); 2.6 µM in [8] (setting [19]); 1 ± 0.5 µg/mL in series [10] (setting [18]); 2.3 µM in series [10] (setting [19]); 1.3 ± 0.2 µg/mL in series [12] (setting [18]); 2.8 µM in series [12] (setting [19]). The “Selectivity Index (SI) C. elegans Wild Type” value in [5] was 1.2. In series [8], the “Selectivity Index (SI) O. ochengi Males” value is 50.8. In addition, in series [9], the 50% cytotoxic concentration (CC50) at 48 h was 133 µM. In addition, in series [9], the cytotoxic concentration (CC50) at 72 h turned out to be 60.9 ± 0.8 µg/mL (≈ 133 µM). Besides, the “Selectivity Index (SI) O. ochengi Females” value in series [10] is reported as 60.9. Besides, the “Selectivity Index (SI) O. ochengi Microfilariae” value in [12] amounted to 46.9.
Regarding procyanidin, the “Reduction of cell viability” value in series [13] is on record as 15%.
Ivermectin [reference compound]: the LC50/48 h is more than 100 µg/mL in series [3] (C. elegans DA1316 (ivermectin-resistant)); 1.2 ± 0.1 µg/mL in series [5] (C. elegans WT, 48 h, mean ± SD); more than 100 µg/mL in [6] (C. elegans VC722 (ivermectin-resistant)); 1.2 ± 0.5 µg/mL in series [8] (O. ochengi males, 48 h, mean ± SD); 1.5 ± 0.3 µg/mL in [10] (O. ochengi females, 48 h, mean ± SD); 1.5 ± 0.0 µg/mL in series [12] (O. ochengi microfilariae, 48 h, mean ± SD). Besides, the LC50 in series [5] (read-out: LC50/48 h (in brackets), C. elegans WT, 48 h, calculated in µM) was 1.3 µM; in series [8] (O. ochengi males, 48 h, calculated in µM, read-out: LC50/48 h (in brackets) (converted)), 1.3 µM; in [10] (O. ochengi females, 48 h, calculated in µM, read-out: LC50/48 h (in brackets) (converted)), 1.7 µM; in [15], 1.7 µM; in series [12] (O. ochengi microfilariae, 48 h, calculated in µM, read-out: LC50/48 h (in brackets) (converted)) it was 1.7 µM. Moreover, the CC50 in [14] (Caco-2, CC50 after 48 h calculated in µM, read-out: Cytotoxicity CC50, Caco-2 (in brackets) (converted)) is 140 µM. Further, the “Cytotoxicity, means CC50 ± SD, Caco-2” value in series [14] (Caco-2, MTT) came out at 28.7 ± 0.7 µg/mL.

Source of the values: paper PMC6154738, “Anti-Onchocerca and Anti-Caenorhabditis Activity of a Hydro-Alcoholic Extract from the Fruits of Acacia nilotica and Some Proanthocyanidin Derivatives” (Molecules : A Journal of Synthetic Chemistry and Natural …, 2017).
